Data on two compounds can be found in patent US20080032998A1, “Pyrazolopyrimidines, a process for their preparation and their use as medicine” (MERZ PHARMA GMBH & CO. KGAA, priority 2006, published 2008).

In test [1] the target is T1, transmembrane allosteric modulatory sites of mGluR5 receptors in cortical membranes (Rattus norvegicus, UniProt P31424).
T1 construct: from tissue; host or cells: rat brain cortex membranes (male Sprague-Dawley)
Nature of the test: [3H]-MPEP binding assay in rat cortical membranes. The note with it: [3H]-MPEP 5 nM, read-out: mGluR5_MPEP rCTX_IC50. As to the method:
Male Sprague-Dawley rats (200-250 g) are decapitated and their brains are removed rapidly. The cortex is dissected and homogenized in 20 volumes of ice-cold 0.32 M sucrose using a glass-Teflon homogenizer. The homogenate is centrifuged at 1000×g for 10 minutes. The pellet is discarded and the supernatant centrifuged at 20,000×g for 20 minutes. The resulting pellet is re-suspended in 20 volumes of distilled water and centrifuged for 20 minutes at 8000×g. Then the supernatant and the buffy coat are centrifuged at 48,000×g for 20 minutes in the presence of 50 mM Tris-HCl, pH 8.0. The pellet is then re-suspended and centrifuged two to three more times at 48,000×g for 20 minutes in the presence of 50 mM Tris-HCl, pH 8.0. All centrifugation steps are carried out at 4° C. After resuspension in 5 volumes of 50 mM Tris-HCl, pH 8.0 the membrane suspension is frozen rapidly at −80° C. […]
Alternatively, assays are performed with [^3H]-MMPEP (2-(3-methoxyphenylethynyl)-6-methylpyridine hydrochloride) as radioligand. […] Following separation and rinse, the filters are placed into scintillation liquid (5 ml Ultima Gold, Perkin Elmer, Germany) and radioactivity retained on the filters is determined with a conventional liquid scintillation counter (Canberra Packard, Germany).

The next test concerns the target T2, mGluR5 receptors (Rattus norvegicus, UniProt P31424).
T2 construct: endogenous in cells; host or cells: primary astrocytes from neocortex of Sprague-Dawley rat pups
The test can be described thus: Cytosolic calcium studies with astrocytes (astrocyte culture test, FLIPR). The note with it: rat primary astrocytes, L-quisqualate 100 nM; read-out: mGluR5_FLIPR_r_rpA IC50. The class given is cell-based. As to the method:
Primary astrocyte cultures are prepared from cortices of newborn rats as described by Booher and Sensenbrenner (1972, Neurobiology 2(3):97-105). Briefly, Sprague-Dawley rat pups (2-4 d old) are decapitated and neocortices are dissected, disintegrated with a nylon filter (pore size 80 μm) and carefully triturated. […]
The increase of cytosolic calcium after stimulation with the mGluR5 agonist L-quisqualate is measured using a fluorometric imaging plate reader (FLIPR) and the Ca-Kit (both Molecular Devices). […] Subsequently, plates are transferred to FLIPR to detect calcium increase with the addition of L-quisqualate (100 nM) measured as relative fluorescence units (RFU). […]
(§1) The fluorescence signal increase after addition of agonist reflects the increase of cytosolic calcium. […] The mean of replicated temporal data (n=3-5) is calculated and used for graphical representation. For the evaluation of the pharmacology, the calcium changes in response to different concentrations of agonist or antagonist are determined using a maximum minus minimum (MaxMin) calculation.
All responses (RFU-values) are determined as percentage of control (=maximum response). EC50 and IC50 are calculated according the logistic equation using GraFit 5.0 (Erithacus Software, GB) or Prism 4.0 (GraphPad Software, USA).

The target of test [2] is T3, metabotropic glutamate receptor (mGluR5) (Homo sapiens, UniProt P41594). Nature of the test: Cytosolic calcium studies with stably transfected cells (FLIPR). The class given is cell-based. More on the design: expressed in transfected cells; host or cells: CHO-K1 cells (IPTG-inducible expression). To be noted: CHO-K1 cells with human mGluR5, agonist L-quisqualic acid; read-out: mGluR5_FLIPR_h_CHONAM_IC50. As to the method:
Cytosolic Calcium Studies with Stably Transfected Cells
Chinese hamster ovary cells (CHO-K1 cells), stably transfected for inducible expression of a human metabotropic glutamate receptor mGluR5, are seeded into black clear bottom 96 well plates at a density of 35.000 cells per well. The standard growth medium used (Dulbecco's modified Eagle Medium, DMEM plus L-proline) contains the appropriate inducer isopropyl-β-D-thiogalactopyranosid (IPTG) to achieve optimal receptor expression. One day after seeding the growth medium is exchanged for reconstituted Ca-Kit (Molecular Devices, USA) and incubated for one hour. […] Agonistic compounds to the receptor elicit increases in cytosolic calcium which can be measured as increases in fluorescence signals by use of a fluorescence imaging plate reader (Molecular Devices).
as §1
All responses (RFU-values) are determined as percentage of control (=maximum response). […]

Test [3] has as its target T3, metabotropic glutamate receptor (mGluR5). Nature of the test: Activity as mGluR5 modulator (prior-art compounds, method not given).

T3 sequence (P41594 21-1212): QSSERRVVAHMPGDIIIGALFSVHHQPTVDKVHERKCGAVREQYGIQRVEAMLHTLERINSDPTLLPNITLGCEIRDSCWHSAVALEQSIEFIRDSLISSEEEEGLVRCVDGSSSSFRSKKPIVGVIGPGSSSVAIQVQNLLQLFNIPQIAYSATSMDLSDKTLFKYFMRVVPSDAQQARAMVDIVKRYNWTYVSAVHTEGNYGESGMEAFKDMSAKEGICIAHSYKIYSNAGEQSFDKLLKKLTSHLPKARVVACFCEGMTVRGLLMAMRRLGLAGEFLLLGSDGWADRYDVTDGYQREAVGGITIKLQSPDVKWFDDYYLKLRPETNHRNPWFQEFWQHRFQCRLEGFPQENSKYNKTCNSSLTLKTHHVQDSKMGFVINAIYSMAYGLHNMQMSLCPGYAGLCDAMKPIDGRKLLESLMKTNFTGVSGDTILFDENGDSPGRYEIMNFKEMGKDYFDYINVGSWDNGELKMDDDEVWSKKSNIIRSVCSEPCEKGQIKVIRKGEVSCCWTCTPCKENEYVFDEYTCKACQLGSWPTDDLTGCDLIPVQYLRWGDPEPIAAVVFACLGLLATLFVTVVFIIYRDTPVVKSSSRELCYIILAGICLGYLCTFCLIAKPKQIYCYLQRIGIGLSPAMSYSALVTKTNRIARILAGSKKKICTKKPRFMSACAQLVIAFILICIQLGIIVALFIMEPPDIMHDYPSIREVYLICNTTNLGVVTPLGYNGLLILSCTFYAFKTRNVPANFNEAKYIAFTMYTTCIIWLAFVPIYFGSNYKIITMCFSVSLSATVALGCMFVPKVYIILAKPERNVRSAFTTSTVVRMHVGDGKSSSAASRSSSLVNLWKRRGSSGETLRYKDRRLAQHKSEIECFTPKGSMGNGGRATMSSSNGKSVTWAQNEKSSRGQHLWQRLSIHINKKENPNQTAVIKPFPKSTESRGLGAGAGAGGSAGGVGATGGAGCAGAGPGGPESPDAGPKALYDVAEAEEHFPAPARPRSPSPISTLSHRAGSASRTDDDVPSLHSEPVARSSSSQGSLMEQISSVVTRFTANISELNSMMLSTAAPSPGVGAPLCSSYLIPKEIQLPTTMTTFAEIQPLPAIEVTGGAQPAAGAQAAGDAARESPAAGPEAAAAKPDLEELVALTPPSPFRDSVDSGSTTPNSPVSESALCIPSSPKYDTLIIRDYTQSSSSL
T2 sequence (P31424 21-1203): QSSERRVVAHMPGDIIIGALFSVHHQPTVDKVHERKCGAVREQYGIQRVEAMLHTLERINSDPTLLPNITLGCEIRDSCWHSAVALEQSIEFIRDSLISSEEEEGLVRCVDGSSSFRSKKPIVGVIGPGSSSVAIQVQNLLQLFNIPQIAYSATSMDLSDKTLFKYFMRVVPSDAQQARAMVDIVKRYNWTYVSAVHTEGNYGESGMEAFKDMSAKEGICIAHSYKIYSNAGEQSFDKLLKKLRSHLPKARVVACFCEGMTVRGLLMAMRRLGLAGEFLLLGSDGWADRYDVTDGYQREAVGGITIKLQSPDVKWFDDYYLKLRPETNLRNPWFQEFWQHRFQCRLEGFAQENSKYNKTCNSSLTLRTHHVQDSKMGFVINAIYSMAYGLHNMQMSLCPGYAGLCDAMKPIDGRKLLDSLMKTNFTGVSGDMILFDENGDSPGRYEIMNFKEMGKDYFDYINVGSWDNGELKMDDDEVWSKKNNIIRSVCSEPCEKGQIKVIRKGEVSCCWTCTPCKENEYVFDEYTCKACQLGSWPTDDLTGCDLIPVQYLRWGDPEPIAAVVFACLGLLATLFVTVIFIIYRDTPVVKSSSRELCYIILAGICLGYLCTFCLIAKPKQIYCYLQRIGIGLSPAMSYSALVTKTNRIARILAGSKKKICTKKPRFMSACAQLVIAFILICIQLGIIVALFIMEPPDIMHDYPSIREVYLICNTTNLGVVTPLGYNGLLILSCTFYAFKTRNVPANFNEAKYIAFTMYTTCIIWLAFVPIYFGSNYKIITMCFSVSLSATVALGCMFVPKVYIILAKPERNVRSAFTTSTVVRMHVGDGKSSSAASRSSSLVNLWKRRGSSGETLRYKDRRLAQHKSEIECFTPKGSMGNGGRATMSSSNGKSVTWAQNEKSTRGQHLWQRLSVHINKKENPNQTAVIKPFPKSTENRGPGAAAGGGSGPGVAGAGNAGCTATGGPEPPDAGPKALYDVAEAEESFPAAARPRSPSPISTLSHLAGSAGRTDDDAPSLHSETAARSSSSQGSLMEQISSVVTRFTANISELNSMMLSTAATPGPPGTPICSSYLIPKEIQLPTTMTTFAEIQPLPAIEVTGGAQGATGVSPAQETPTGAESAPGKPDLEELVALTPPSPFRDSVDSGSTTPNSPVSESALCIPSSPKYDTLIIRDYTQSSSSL
T1 sequence (P31424 21-1203): as above

`O=C(c1cc2ncc(Br)cn2n1)N1CC=C(c2ccccc2)CC1` [Example 1, (6-Bromo-pyrazolo[1,5-a]pyrimidin-2-yl)-(4-phenyl-3,6-dihydro-2H-pyridin-1-yl)-methanone]: the IC50 in test [1] is 250 nM; on mGluR5 receptors, 80 nM; in test [2] it was 493 nM.
Take `O=C(c1cc2ncc(Br)cn2n1)N1CCc2ccccc2C1` [M, (6-Bromo-pyrazolo[1,5-a]pyrimidin-2-yl)-(1,2,3,4-tetrahydro-isoquinolin-2-yl)-methanon]: in test [3], the “activity as metabotropic glutamate receptor (mGluR5) modulator” value is “only a limited activity” and the selectivity entry was “not selective”.
